This experiment concerns the target adenosine A2A receptor (Homo sapiens, UniProt P29274). In words: adenosine A2A receptor agonist assay, method of Murphree et al, Molecular Pharmacology 61, 455-462 (2002). It is filed as binding. The following applies: method of L. J. Murphree et al. From the text:
Compounds of formula I and their pharmaceutically acceptable salts are useful as pharmaceuticals. In particular, they activate the adenosine A2A receptor, i.e. they act as A2A receptor agonists.

The structures appear in SMILES notation. Counter-ions that a name gives are not always drawn.

Sequence of adenosine A2A receptor (P29274 whole entry): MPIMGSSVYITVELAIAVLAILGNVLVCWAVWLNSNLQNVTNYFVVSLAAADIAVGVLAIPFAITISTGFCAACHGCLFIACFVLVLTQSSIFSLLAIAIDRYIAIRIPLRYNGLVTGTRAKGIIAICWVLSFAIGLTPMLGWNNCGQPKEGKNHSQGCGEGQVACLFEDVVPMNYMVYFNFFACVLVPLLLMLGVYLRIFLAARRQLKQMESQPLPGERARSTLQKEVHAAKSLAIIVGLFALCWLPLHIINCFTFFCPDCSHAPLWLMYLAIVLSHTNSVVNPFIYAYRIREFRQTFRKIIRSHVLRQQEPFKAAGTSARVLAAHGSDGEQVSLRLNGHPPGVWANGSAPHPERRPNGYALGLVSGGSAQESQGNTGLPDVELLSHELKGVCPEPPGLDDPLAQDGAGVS

Broadly, the Ki is the equilibrium dissociation constant of an inhibitor or competing ligand from its target. The molecule `NC1CCC(Nc2nc(NCC(c3ccccc3)c3ccccc3)c3ncn(C4CC(n5cccn5)C(O)C4O)c3n2)CC1` [Example 12, (1R,2S,3R,1S)-3-[2-(4-Amino-cyclohexylamino)-6-(2,2-diphenyl-ethylamino)-purin-9-yl]-5-pyrazol-1-yl-cyclopentane-1,2-diol] came in with a Ki of 0.272 µM.
Take `Cc1nnn([C@H]2C[C@@H](n3cnc4c(NCC(c5ccccc5)c5ccccc5)nc(N[C@@H]5CCNC5)nc43)[C@H](O)[C@@H]2O)n1` [Example 7, (1R,2S,3R,5S)-3-[6-(2,2-Diphenyl-ethylamino)-2-((R)-pyrrolidin-3-ylamino)-purin-9-yl]-5-(5-methyl-tetrazol-2-yl)-cyclopentane-1,2-diol trifluoroacetate]: affinity was put at a Ki of 0.043 µM.

(Values after patent publication US8114877B2, “Organic compounds” (Novartis AG, priority 2005, dated 2012).)
